Measured values taken from patent EP4700040A1, “PEPTIDE AND LUMINESCENT COMPLEX CONTAINING SAME” (Shenzhen Loggene Life Science & Technology Co., Ltd., priority 2023, dated 2024).

How the values were obtained:
Assay type in all cases: biochemical, human
PCT [1] = test: Luciferase dual-antibody complementary activation assay for PCT detection, clone supernatants, retest with CTZ-h (Example 1); conditions: for Signal-to-noise ratio: RLU antigen+/RLU antigen-, MBP-PCT 3.3 ng/ml, CTZ-h; for PCT+: luminescence signal value with MBP-PCT 3.3 ng/ml, large subunit-rSCFV5 50 nM, supernatant; for PCT+ / PCT-: retest CTZ-h 25 µM, read after 60 s; for PCT-: luminescence signal value, background control PBSAD without PCT
Method: In order to improve the signal-to-noise ratio and complementary activity of the luciferase dual-antibody complementary activation assay, a series of complementary luciferase small subunits were prepared in this example. Large subunit-rSCFV5 fusion protein (SEQ ID NO: 87) was kept unchanged, and the small subunit sequence of the rSCFV18-small subunit P114 fusion protein (SEQ ID NO: 88) was modified by semi-randomization to prepare rSCFV18-small subunit mutant fusion proteins. Based on the sequence of small subunit P114, and with reference to the 3D structure of complementary luciferase, computer-aided sequence design was employed to generate a library with a theoretical diversity of 2.49*10^6. Primers were designed for PCR amplification using the plasmid pComb3x of rSCFV18-small subunit P114 fusion protein as a template. Subsequently, an expression vector library was constructed by means of restriction digestion and ligation (SfiI, NheI), and a semi-random amino acid mutation library was introduced into the small subunit position and transformed into HB2151 competent cells, yielding a library capacity of 7.6*10^9. The 100 plates were spread, and 9,500 single clones were picked and inoculated into 600 µL of 2YTA medium, followed by incubation at 37°C with shaking at 250 rpm for 2 h. When the bacterial density reached approximately OD600 = 0.6~1.0, IPTG was then added to a final concentration of 1 mM, and the culture was further incubated at 30°C with shaking at 250 rpm for 20 h. The next day, the bacteria were collected by centrifugation at 4°C, 4,500g for 10min. The supernatant was discarded, and the precipitate was resuspended with 200µl of PBS containing polymyxin B at a final concentration of 20,000 u/ml. The suspension was incubated at room temperature with shaking at 100rpm for 1h, and then centrifuged at 4500g for 10min, and the supernatant was used for the test.
Test Methods: • (1) The concentration of large subunit-rSCFV5 fusion protein was diluted to 50 nM, and 15 µl was added per well; • (2) MBP-PCT fusion protein was diluted to 3.3 ng/ml with PBSAD, and 15 µl was added per well. The background control was PBSAD, and 10 µl was added per well; • (3) HB2151 strain containing expression plasmids with different small subunit were induced by 1 mM of IPTG at 30°C overnight, then treated with polymyxin B for 1.5 h, and centrifuged to collect the supernatant, and 2.5 µl supernatant was added per well; • (4) The above three components were slightly mixed, incubated at 37°C for 7 min, and Obuffer 6.37-3 containing Furimazine at a concentration of 25 µM was added, and after 80 s, the luminescence signal value was detected using a bioluminescence detector; and • (5) Clones with RLU higher than 10,000 and a signal-to-noise ratio (RLU antigen+/RLU antigen-) higher than that of the rSCFV18-small subunit P114 fusion protein were selected for retesting. The substrate was replaced with CTZ-h for retesting. Obuffer 6.37-3 containing CTZ-h at a concentration of 25 µM was added, and after 60 s, the luminescence signal value was detected using a bioluminescence detector.

PCT [2] = test: Sensitivity and linear range for PCT detection of preferred small subunits (Example 5); conditions: for luminescence value: normalized; for Signal-to-noise ratio at 1000 pg/ml: large subunit 8.3~25 nM, small subunit fusion 30~180 nM, CTZ-h 15 µM
Method: Detection Methods: • (1) The concentration of large subunit-rSCFV5 fusion protein was diluted with PBSA to 8.3~25nM, and 15µl was added per well; • (2) MBP-PCT fusion proteins were diluted with PBSAD in a downward gradient starting from 2.5 µg/ml, and 10 µl was added per well; • (3) The rSCFV18-small subunit mutant-containing fusion protein was diluted with PBSA to 30~180 nM, and 15 µl was added per well; • (4) The above three components were slightly mixed, incubated at 37°C for 15 min, and Obuffer 6.37-3 containing CTZ-h at a concentration of 15 µM was added, and the luminescence signal value was immediately detected using a bioluminescence detector (the luminescence value was normalized);

PCT [3] = test: Second library screening for PCT detection, clone supernatants, retest with CTZ-h (Example 4); conditions: for Signal-to-noise ratio: PCT+/PCT-, MBP-PCT 3.3 ng/ml, CTZ-h; for PCT+: luminescence signal value with MBP-PCT 3.3 ng/ml; for PCT+ / PCT-: large subunit-rSCFV5 12.5 nM, CTZ-h 25 µM, 60 s; for PCT-: luminescence signal value, PBSAD control without PCT
Method: In order to further improve the signal-to-noise ratio and complementary activity of the luciferase dual-antibody complementary activation assay, novel complementary luciferase small subunits were prepared in this example. Large subunit-rSCFV5 fusion protein (SEQ ID NO: 87) was kept unchanged, and the small subunit sequence of the rSCFV18-RB073 fusion protein (SEQ ID NO: 89) were modified by semi-randomization. The theoretical diversity was 6912, the library capacity was 10^6, and 3,000 single clones were picked. The method of protein induction and expression was the same as that in Example 2.
Detection Methods: • (1) The concentration of large subunit-rSCFV5 fusion protein was diluted to 12.5 nM, and 15 µl was added per well; • (2) MBP-PCT fusion protein was diluted to 3.3 ng/ml with PBSAD, and 10 µl was added per well; • (3) HB2151 strain containing plasmids with different small subunit sequences were induced by IPTG at 30°C overnight, then treated with polymyxin B for 1.5h, and centrifuged to collect the supernatant, and 2.5µl supernatant was added per well; • (4) The above three components were slightly mixed, incubated at 37°C for 7 min, and Obuffer 6.37-3 containing Furimazine at a concentration of 25 µM was added, and after 3 min, the luminescence signal value was detected using a bioluminescence detector; and • (5) Clones with RLU higher than 10,000 were picked. The substrate was replaced with CTZ-h substrate for retesting (Obuffer 6.37-3 containing CTZ-h at a concentration of 25 µM was added, and after 60 s, the luminescence signal value was detected using a bioluminescence detector), and a PBSAD control was added to test the signal-to-noise ratio.

Row | Sequence | Signal-to-noise ratio (PCT [1]) | PCT+ (PCT [1]) | PCT- (PCT [1]) | luminescence value (PCT [2]; PCT 0.0, background) | luminescence value (PCT [2]; PCT 1 (pg/ml)) | luminescence value (PCT [2]; PCT 3 (pg/ml)) | luminescence value (PCT [2]; PCT 10 (pg/ml)) | luminescence value (PCT [2]; PCT 30 (pg/ml)) | luminescence value (PCT [2]; PCT 100 (pg/ml)) | luminescence value (PCT [2]; PCT 1000 (pg/ml)) | luminescence value (PCT [2]; PCT 10000 (pg/ml)) | luminescence value (PCT [2]; PCT 100000 (pg/ml)) | luminescence value (PCT [2]; PCT 250000 (pg/ml)) | Signal-to-noise ratio at 1000 pg/ml (PCT [2]) | Signal-to-noise ratio (PCT [3]) | PCT+ (PCT [3]) | PCT- (PCT [3])
1 | VEGYRLFNEKS [RB195] | 30.8 | 41519 | 1307 | – | – | – | – | – | – | – | – | – | – | – | – | – | –
2 | VEGYRLFDRKW [RB186] | 45.1 | 27190 | 590 | – | – | – | – | – | – | – | – | – | – | – | – | – | –
3 | VEGYRLFERKS [RB097] | 21 | 95553 | 4346 | – | – | – | – | – | – | – | – | – | – | – | – | – | –
4 | VEGYRLFNRKS [RB252] | 20.3 | 70963 | 3324 | – | – | – | – | – | – | – | – | – | – | – | – | – | –
5 | VSGYRLFDKKW [RC-099] | – | – | – | 5000 | 5106 | 5166 | 5453 | 5950 | 7470 | 28688 | 243815 | 1744023 | 2942238 | 5.7 | 7.0 | 8149 | 1164
6 | VEGYRLFNRKW [RB223] | 34.7 | 39231 | 1099 | – | – | – | – | – | – | – | – | – | – | – | – | – | –
7 | VEGYRLFERIW [RB113] | 31.3 | 57092 | 1769 | – | – | – | – | – | – | – | – | – | – | – | – | – | –
8 | VEGYRLFDRKL [RB209] | 33.6 | 37398 | 1080 | – | – | – | – | – | – | – | – | – | – | – | – | – | –
9 | VEGYRLFKREL [RB152] | 40 | 37150 | 906 | – | – | – | – | – | – | – | – | – | – | – | – | – | –
10 | VEGYRLFERKW [RB035] | 31.6 | 58318 | 1790 | – | – | – | – | – | – | – | – | – | – | – | – | – | –
11 | VEGYRLFDRKS [RC-218] | – | – | – | 5000 | 4937 | 4976 | 5164 | 5701 | 7494 | 31585 | 266213 | 1757745 | 2436323 | 6.3 | 7.9 | 7242 | 921
12 | VDGYRLFEKVS [RC-263] | – | – | – | 5000 | 5132 | 5234 | 5192 | 5647 | 7134 | 28776 | 240937 | 1556694 | 2230650 | 5.8 | 7.0 | 4768 | 685
13 | VEGYRLFERVL [RB150] | 32.1 | 53945 | 1630 | – | – | – | – | – | – | – | – | – | – | – | – | – | –
14 | VDGWRLFDKKS [RC-224] | – | – | – | 5000 | 5021 | 5002 | 5260 | 5685 | 7341 | 28543 | 240337 | 1453897 | 1856339 | 5.7 | 9.2 | 10561 | 1142
15 | VEGYRLFDKVS [RC-215] | – | – | – | 5000 | 5095 | 5206 | 5458 | 6156 | 7892 | 35231 | 296125 | 1967363 | 2983773 | 7.0 | 11.2 | 5972 | 531
16 | VSGYRLFDKKS [RC-187] | – | – | – | 5000 | 4944 | 4968 | 5099 | 5570 | 7032 | 27642 | 214329 | 910908 | 1012760 | 5.5 | 7.9 | 11049 | 1405
